Measurements: PubChem BioAssay (NCI)
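Following 48 hours of exposure in 96-well plates, responses at five concentrations were used to interpolate endpoints linearly. GI50 = concentration required for 50% inhibition of growth. At the TGI there is no net growth.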

Experiments:
Assay in all cases: NCI tumour cell line growth inhibition, 48 h
SF-295 CNS = system: SF-295 CNS
HOP-62 NSCLC = system: HOP-62 NSCLC
UACC-62 melanoma = system: UACC-62 melanoma
SK-MEL-2 melanoma = system: SK-MEL-2 melanoma
SNB-19 CNS = system: SNB-19 CNS
HCT-15 colon = system: HCT-15 colon
KM12 colon = system: KM12 colon
RPMI-8226 leukemia = system: RPMI-8226 leukemia
MCF7 breast = system: MCF7 breast
SK-OV-3 ovarian = system: SK-OV-3 ovarian
COLO 205 colon = system: COLO 205 colon
BT-549 breast = system: BT-549 breast
MDA-MB-468 breast = system: MDA-MB-468 breast
NCI-H226 lung = system: NCI-H226 lung
SN12C renal = system: SN12C renal
CCRF-CEM leukemia = system: CCRF-CEM leukemia
SF-539 CNS = system: SF-539 CNS
MALME-3M melanoma = system: MALME-3M melanoma
ACHN renal = system: ACHN renal
MOLT-4 leukemia = system: MOLT-4 leukemia
EKVX NSCLC = system: EKVX NSCLC
NCI-H460 lung = system: NCI-H460 lung
SNB-75 CNS = system: SNB-75 CNS
SK-MEL-28 melanoma = system: SK-MEL-28 melanoma
OVCAR-5 ovarian = system: OVCAR-5 ovarian
HCC-2998 colon = system: HCC-2998 colon
MDA-MB-435 = system: MDA-MB-435
SW-620 colon = system: SW-620 colon
IGROV1 ovarian = system: IGROV1 ovarian
K-562 leukemia = system: K-562 leukemia
HOP-92 NSCLC = system: HOP-92 NSCLC
HCT-116 colon = system: HCT-116 colon
HT29 colon = system: HT29 colon
A549 NSCLC = system: A549 NSCLC
SF-268 CNS = system: SF-268 CNS
UACC-257 melanoma = system: UACC-257 melanoma
U251 CNS = system: U251 CNS
RXF 393 renal = system: RXF 393 renal
PC-3 prostate = system: PC-3 prostate
M14 melanoma = system: M14 melanoma
OVCAR-4 ovarian = system: OVCAR-4 ovarian
LOX IMVI melanoma = system: LOX IMVI melanoma
HS 578T breast = system: HS 578T breast
CAKI-1 renal = system: CAKI-1 renal
786-0 renal = system: 786-0 renal
MDA-MB-231 breast = system: MDA-MB-231 breast
A498 renal = system: A498 renal
TK-10 renal = system: TK-10 renal
T-47D breast = system: T-47D breast
OVCAR-8 ovarian = system: OVCAR-8 ovarian
SK-MEL-5 melanoma = system: SK-MEL-5 melanoma
NCI-H522 lung = system: NCI-H522 lung
UO-31 renal = system: UO-31 renal
DU-145 prostate = system: DU-145 prostate
NCI-H23 lung = system: NCI-H23 lung
SR leukemia = system: SR leukemia
OVCAR-3 ovarian = system: OVCAR-3 ovarian

**Q.** What does the source list for `O=c1oc2ccc(-c3ccc(F)cc3F)cc2c(=O)n1-c1ccc(F)c(Cl)c1`?
**A.** GI50 (SF-295 CNS): 2680 nM; TGI (SF-295 CNS): 7.72 µM; GI50 (HOP-62 NSCLC): 2380 nM; TGI (HOP-62 NSCLC): 6.66 µM; GI50 (UACC-62 melanoma): 1880 nM; TGI (UACC-62 melanoma): 5.01 µM; GI50 (SK-MEL-2 melanoma): 2090 nM; TGI (SK-MEL-2 melanoma): 4.56 µM; GI50 (SNB-19 CNS): 3.79 µM; TGI (SNB-19 CNS): 23.8 µM; GI50 (HCT-15 colon): 3.17 µM; TGI (HCT-15 colon): 14.9 µM; GI50 (KM12 colon): 2970 nM; TGI (KM12 colon): 9.62 µM; GI50 (RPMI-8226 leukemia): 1620 nM; TGI (RPMI-8226 leukemia): 6.62 µM; GI50 (MCF7 breast): 3.27 µM; TGI (MCF7 breast): 56.9 µM; GI50 (SK-OV-3 ovarian): 2410 nM; TGI (SK-OV-3 ovarian): 6.33 µM; GI50 (COLO 205 colon): 12.3 µM; TGI (COLO 205 colon): 26.2 µM; GI50 (BT-549 breast): 1800 nM; TGI (BT-549 breast): 4.14 µM; GI50 (MDA-MB-468 breast): 2250 nM; TGI (MDA-MB-468 breast): 5.84 µM; GI50 (NCI-H226 lung): 1980 nM; TGI (NCI-H226 lung): 7.01 µM; GI50 (SN12C renal): 2160 nM; TGI (SN12C renal): 8.67 µM; GI50 (CCRF-CEM leukemia): 3.69 µM; TGI (CCRF-CEM leukemia): 35.4 µM; GI50 (SF-539 CNS): 3.16 µM; TGI (SF-539 CNS): 10.4 µM; GI50 (MALME-3M melanoma): 2030 nM; TGI (MALME-3M melanoma): 5.65 µM; GI50 (ACHN renal): 3.06 µM; TGI (ACHN renal): 10.1 µM; GI50 (MOLT-4 leukemia): 3.83 µM; TGI (MOLT-4 leukemia): 45.1 µM; GI50 (EKVX NSCLC): 3 µM; TGI (EKVX NSCLC): 21.3 µM; GI50 (NCI-H460 lung): 2930 nM; TGI (NCI-H460 lung): 9.93 µM; GI50 (SNB-75 CNS): 1590 nM; TGI (SNB-75 CNS): 5.77 µM; GI50 (SK-MEL-28 melanoma): 3.29 µM; TGI (SK-MEL-28 melanoma): 12.7 µM; GI50 (OVCAR-5 ovarian): 3.68 µM; TGI (OVCAR-5 ovarian): 20.6 µM; GI50 (HCC-2998 colon): 3.42 µM; TGI (HCC-2998 colon): 12.4 µM; GI50 (MDA-MB-435): 2580 nM; TGI (MDA-MB-435): 7.95 µM; GI50 (SW-620 colon): 3.43 µM; TGI (SW-620 colon): 13 µM; GI50 (IGROV1 ovarian): 3.49 µM; TGI (IGROV1 ovarian): 17.4 µM; GI50 (K-562 leukemia): 2120 nM; TGI (K-562 leukemia): > 100 µM; GI50 (HOP-92 NSCLC): 808 nM; TGI (HOP-92 NSCLC): 4.78 µM; GI50 (HCT-116 colon): 3.01 µM; TGI (HCT-116 colon): 10.1 µM; GI50 (HT29 colon): 9.51 µM; TGI (HT29 colon): 27.3 µM; GI50 (A549 NSCLC): 2870 nM; TGI (A549 NSCLC): 15 µM; GI50 (SF-268 CNS): 2690 nM; TGI (SF-268 CNS): 11.6 µM; GI50 (UACC-257 melanoma): 2070 nM; TGI (UACC-257 melanoma): 6.51 µM; GI50 (U251 CNS): 2900 nM; TGI (U251 CNS): 11.7 µM; GI50 (RXF 393 renal): 1770 nM; TGI (RXF 393 renal): 5.67 µM; GI50 (PC-3 prostate): 3.18 µM; TGI (PC-3 prostate): 13.7 µM; GI50 (M14 melanoma): 3.28 µM; TGI (M14 melanoma): 11.1 µM; GI50 (OVCAR-4 ovarian): 3.24 µM; TGI (OVCAR-4 ovarian): 39.6 µM; GI50 (LOX IMVI melanoma): 3.69 µM; TGI (LOX IMVI melanoma): 12.2 µM; GI50 (HS 578T breast): 2420 nM; TGI (HS 578T breast): 7.45 µM; GI50 (CAKI-1 renal): 1720 nM; TGI (CAKI-1 renal): 5.11 µM; GI50 (786-0 renal): 2380 nM; TGI (786-0 renal): 7.2 µM; GI50 (MDA-MB-231 breast): 1370 nM; TGI (MDA-MB-231 breast): 3.77 µM; GI50 (A498 renal): 2250 nM; TGI (A498 renal): 6.36 µM; GI50 (TK-10 renal): 3.11 µM; TGI (TK-10 renal): 9.19 µM; GI50 (T-47D breast): 2280 nM; TGI (T-47D breast): 6.71 µM; GI50 (OVCAR-8 ovarian): 3.55 µM; TGI (OVCAR-8 ovarian): 25.4 µM; GI50 (SK-MEL-5 melanoma): 1460 nM; TGI (SK-MEL-5 melanoma): 3.03 µM; GI50 (NCI-H522 lung): 1850 nM; TGI (NCI-H522 lung): 6.39 µM; GI50 (UO-31 renal): 2400 nM; TGI (UO-31 renal): 9.98 µM; GI50 (DU-145 prostate): 4.12 µM; TGI (DU-145 prostate): 25.3 µM; GI50 (NCI-H23 lung): 2210 nM; TGI (NCI-H23 lung): 6.45 µM; GI50 (SR leukemia): 2960 nM; TGI (SR leukemia): 20.5 µM; GI50 (OVCAR-3 ovarian): 3.13 µM; TGI (OVCAR-3 ovarian): 11.9 µM
